The supplement of paper PMC10307832

Experiments:
Experiment in all cases: relative viability (nuclei count vs DMSO), 5 days (fraction); higher = more cells survive
201T = tested on: 201T
Method in brief: (§1)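 A single step with final 0.05% Triton X-100, 1% formaldehyde and 1 ug/ml Hoechst fixed the cells and stained nuclei 5 days after treatment. Lung cancer cell lines in 1536-well plates had been treated by pin tool the day after seeding with one drug alone or a fixed anchor-drug dose plus five library-drug doses (not always all listed) in √10 steps, and nuclei were counted on 4× images. Relative viability is the ratio of nuclei in treated wells to nuclei in vehicle wells, taken as the median of duplicate plates.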

BEN = tested on: BEN
Method in brief: as §1

EMC-BAC-2 = tested on: EMC-BAC-2
Method in brief: as §1

HARA = tested on: HARA
Method in brief: as §1

LCLC-103H = tested on: LCLC-103H
Method in brief: as §1

LOU-NH91 = tested on: LOU-NH91
Method in brief: as §1

NCI-H1395 = tested on: NCI-H1395
Method in brief: as §1

NCI-H1993 = tested on: NCI-H1993
Method in brief: as §1

NCI-H2023 = tested on: NCI-H2023
Method in brief: as §1

NCI-H2087 = tested on: NCI-H2087
Method in brief: as §1

NCI-H2126 = tested on: NCI-H2126
Method in brief: as §1

NCI-H2347 = tested on: NCI-H2347
Method in brief: as §1

NCI-H23 = tested on: NCI-H23
Method in brief: as §1

NCI-H3122 = tested on: NCI-H3122
Method in brief: as §1

NCI-H441 = tested on: NCI-H441
Method in brief: as §1

NCI-H596 = tested on: NCI-H596
Method in brief: as §1

NCI-H647 = tested on: NCI-H647
Method in brief: as §1

NCI-H650 = tested on: NCI-H650
Method in brief: as §1

NCI-H727 = tested on: NCI-H727
Method in brief: as §1

NCI-H838 = tested on: NCI-H838
Method in brief: as §1

## O=c1cc(N2CCOCC2)oc2c(-c3cccc4c3sc3ccccc34)cccc12 + COc1cc2c(Oc3ccc(NC(=O)C4(C(=O)Nc5ccc(F)cc5)CC4)cc3F)ccnc2cc1OCCCN1CCOCC1 [Foretinib] (partner 0.25 µM)
201T; first compound 0.01 µM
  relative viability: 1.1
201T; first compound 0.03162 µM
  relative viability: 1.13
201T; first compound 0.1 µM
  relative viability: 1.1
201T; first compound 0.3162 µM
  relative viability: 0.963
201T; first compound 1 µM
  relative viability: 1.06
BEN; first compound 0.01 µM
  relative viability: 0.548
BEN; first compound 0.03162 µM
  relative viability: 0.861
BEN; first compound 0.1 µM
  relative viability: 0.57
BEN; first compound 0.3162 µM
  relative viability: 0.701
BEN; first compound 1 µM
  relative viability: 0.578
EMC-BAC-2; first compound 0.01 µM
  relative viability: 1.01
EMC-BAC-2; first compound 0.03162 µM
  relative viability: 0.995
EMC-BAC-2; first compound 0.1 µM
  relative viability: 0.99
EMC-BAC-2; first compound 0.3162 µM
  relative viability: 0.983
EMC-BAC-2; first compound 1 µM
  relative viability: 0.978
HARA; first compound 0.01 µM
  relative viability: 0.768
HARA; first compound 0.03162 µM
  relative viability: 0.897
HARA; first compound 0.1 µM
  relative viability: 0.857
HARA; first compound 0.3162 µM
  relative viability: 0.864
HARA; first compound 1 µM
  relative viability: 0.903
LCLC-103H; first compound 0.01 µM
  relative viability: 0.685
LCLC-103H; first compound 0.03162 µM
  relative viability: 0.786
LCLC-103H; first compound 0.1 µM
  relative viability: 0.806
LCLC-103H; first compound 0.3162 µM
  relative viability: 0.824
LCLC-103H; first compound 1 µM
  relative viability: 0.746
LOU-NH91; first compound 0.01 µM
  relative viability: 0.869
LOU-NH91; first compound 0.03162 µM
  relative viability: 0.938
LOU-NH91; first compound 0.1 µM
  relative viability: 1
LOU-NH91; first compound 0.3162 µM
  relative viability: 0.927
LOU-NH91; first compound 1 µM
  relative viability: 0.955
NCI-H1395; first compound 0.01 µM
  relative viability: 0.995
NCI-H1395; first compound 0.03162 µM
  relative viability: 0.915
NCI-H1395; first compound 0.1 µM
  relative viability: 0.973
NCI-H1395; first compound 0.3162 µM
  relative viability: 1.17
NCI-H1395; first compound 1 µM
  relative viability: 0.986
NCI-H1993; first compound 0.01 µM
  relative viability: 0.681
NCI-H1993; first compound 0.03162 µM
  relative viability: 0.845
NCI-H1993; first compound 0.1 µM
  relative viability: 0.878
NCI-H1993; first compound 0.3162 µM
  relative viability: 0.765
NCI-H1993; first compound 1 µM
  relative viability: 0.748
NCI-H2023; first compound 0.01 µM
  relative viability: 0.719
NCI-H2023; first compound 0.03162 µM
  relative viability: 0.803
NCI-H2023; first compound 0.1 µM
  relative viability: 0.763
NCI-H2023; first compound 0.3162 µM
  relative viability: 0.873
NCI-H2023; first compound 1 µM
  relative viability: 0.636
NCI-H2087; first compound 0.01 µM
  relative viability: 1.09
NCI-H2087; first compound 0.03162 µM
  relative viability: 1.4
NCI-H2087; first compound 0.1 µM
  relative viability: 1.28
NCI-H2087; first compound 0.3162 µM
  relative viability: 1.24
NCI-H2087; first compound 1 µM
  relative viability: 1.2
NCI-H2126; first compound 0.01 µM
  relative viability: 1.16
NCI-H2126; first compound 0.03162 µM
  relative viability: 1.22
NCI-H2126; first compound 0.1 µM
  relative viability: 1.29
NCI-H2126; first compound 0.3162 µM
  relative viability: 1.2
NCI-H2126; first compound 1 µM
  relative viability: 1.24
NCI-H2347; first compound 0.01 µM
  relative viability: 0.963
NCI-H2347; first compound 0.03162 µM
  relative viability: 0.761
NCI-H2347; first compound 0.1 µM
  relative viability: 0.675
NCI-H2347; first compound 0.3162 µM
  relative viability: 0.855
NCI-H2347; first compound 1 µM
  relative viability: 1.05
NCI-H23; first compound 0.01 µM
  relative viability: 1.02
NCI-H23; first compound 0.03162 µM
  relative viability: 1.01
NCI-H23; first compound 0.3162 µM
  relative viability: 1.06
NCI-H23; first compound 1 µM
  relative viability: 0.919
NCI-H3122; first compound 0.01 µM
  relative viability: 0.953
NCI-H3122; first compound 0.03162 µM
  relative viability: 0.918
NCI-H3122; first compound 0.1 µM
  relative viability: 1
NCI-H3122; first compound 0.3162 µM
  relative viability: 0.932
NCI-H3122; first compound 1 µM
  relative viability: 0.954
NCI-H441; first compound 0.01 µM
  relative viability: 1.17
NCI-H441; first compound 0.03162 µM
  relative viability: 0.864
NCI-H441; first compound 0.1 µM
  relative viability: 1.02
NCI-H441; first compound 0.3162 µM
  relative viability: 0.992
NCI-H441; first compound 1 µM
  relative viability: 0.969
NCI-H596; first compound 0.01 µM
  relative viability: 0.838
NCI-H596; first compound 0.03162 µM
  relative viability: 0.946
NCI-H596; first compound 0.1 µM
  relative viability: 0.821
NCI-H596; first compound 0.3162 µM
  relative viability: 0.96
NCI-H596; first compound 1 µM
  relative viability: 0.918
NCI-H647; first compound 0.01 µM
  relative viability: 1.24
NCI-H647; first compound 0.03162 µM
  relative viability: 1.34
NCI-H647; first compound 0.1 µM
  relative viability: 1.34
NCI-H647; first compound 0.3162 µM
  relative viability: 1.24
NCI-H647; first compound 1 µM
  relative viability: 1.08
NCI-H650; first compound 0.03162 µM
  relative viability: 1.07
NCI-H650; first compound 0.1 µM
  relative viability: 0.918
NCI-H650; first compound 0.3162 µM
  relative viability: 1.01
NCI-H650; first compound 1 µM
  relative viability: 0.992
NCI-H727; first compound 0.01 µM
  relative viability: 1.05
NCI-H727; first compound 0.03162 µM
  relative viability: 0.822
NCI-H727; first compound 0.1 µM
  relative viability: 0.908
NCI-H727; first compound 0.3162 µM
  relative viability: 1
NCI-H727; first compound 1 µM
  relative viability: 0.865
NCI-H838; first compound 0.01 µM
  relative viability: 0.987
NCI-H838; first compound 0.03162 µM
  relative viability: 1.02
NCI-H838; first compound 0.1 µM
  relative viability: 1.12
NCI-H838; first compound 0.3162 µM
  relative viability: 0.958
NCI-H838; first compound 1 µM
  relative viability: 0.997
